In patent EP1379634B1 (THE UNIVERSITY OF GEORGIA RESEARCH FOUNDATION, INC., priority 2001, dated 2002):
Residues, ends and D or L forms follow the SMILES beside them. *: point of attachment. Cbz = O=C(OCc1ccccc1)*; CH2F = FC*

Tested on: Taenia crassiceps cysts
Test: Short-term protection of BALB/c mice from cysticercosis infection
Assay type: in vivo
Details: repeat study, BALB/c mice

CC(C)C[C@H](NC(=O)OCc1ccccc1)C(=O)N[C@@H](CC(C)C)C(=O)N[C@@H](Cc1ccc(O)cc1)C(=O)CF [Z-LLY-FMK, Z-Leu-Leu-Tyr-FMK] (Cbz-Leu-Leu-Tyr-CH2F)
protection from cysticercosis infection, subsequent identical prophylactic experiment: 75%-90%
